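Five compound concentrations were applied to cells in 96-well plates for 48 hours; endpoints were derived by simple linear interpolation of the resulting dose-response curve. GI50: concentration for 50% inhibition of growth. TGI marks complete inhibition of growth.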
Assays:
Assay in all cases: NCI anticancer screen, dose series, 48 h
[1] = test system: HOP-92 NSCLC
[2] = test system: LOX IMVI melanoma
[3] = test system: MDA-MB-231 breast
[4] = test system: UACC-257 melanoma
[5] = test system: MDA-MB-435
[6] = test system: SK-OV-3 ovarian
[7] = test system: MALME-3M melanoma
[8] = test system: A498 renal
[9] = test system: UACC-62 melanoma
[10] = test system: SF-268 CNS
[11] = test system: MOLT-4 leukemia
[12] = test system: COLO 205 colon
[13] = test system: SF-539 CNS
[14] = test system: MCF7 breast
[15] = test system: NCI-H226 lung
[16] = test system: BT-549 breast
[17] = test system: HCC-2998 colon
[18] = test system: U251 CNS
[19] = test system: HT29 colon
[20] = test system: NCI-H23 lung
[21] = test system: OVCAR-4 ovarian
[22] = test system: NCI-H460 lung
[23] = test system: SF-295 CNS
[24] = test system: A549 NSCLC
[25] = test system: CAKI-1 renal
[26] = test system: SNB-75 CNS
[27] = test system: RXF 393 renal
[28] = test system: CCRF-CEM leukemia
[29] = test system: DU-145 prostate
[30] = test system: HS 578T breast
[31] = test system: HCT-15 colon
[32] = test system: TK-10 renal
[33] = test system: RPMI-8226 leukemia
[34] = test system: NCI/ADR-RES ovarian
[35] = test system: SN12C renal
[36] = test system: K-562 leukemia
[37] = test system: KM12 colon
[38] = test system: IGROV1 ovarian
[39] = test system: OVCAR-3 ovarian
[40] = test system: SW-620 colon
[41] = test system: SNB-19 CNS
[42] = test system: SR leukemia
[43] = test system: HL-60(TB) leukemia
[44] = test system: M14 melanoma
[45] = test system: NCI-H522 lung
[46] = test system: SK-MEL-2 melanoma
[47] = test system: HOP-62 NSCLC
[48] = test system: OVCAR-8 ovarian
[49] = test system: MDA-MB-468 breast
[50] = test system: 786-0 renal
[51] = test system: SK-MEL-28 melanoma
[52] = test system: SK-MEL-5 melanoma
[53] = test system: PC-3 prostate
[54] = test system: ACHN renal
[55] = test system: T-47D breast
[56] = test system: OVCAR-5 ovarian
[57] = test system: UO-31 renal
[58] = test system: EKVX NSCLC

Q: What does the source list for `COc1ccc(-c2nc3ccccc3n2CC(=O)N=Nc2c(O)[nH]c3ccc(OC)cc23)cc1`?
A: GI50 [1]: 8.19 µM; TGI [1]: 26.4 µM; GI50 [2]: 2.02 µM; TGI [2]: 4.76 µM; GI50 [3]: 5.76 µM; TGI [3]: 19.2 µM; GI50 [4]: 2.56 µM; TGI [4]: 7.16 µM; GI50 [5]: 4.09 µM; TGI [5]: 15.1 µM; GI50 [6]: 15.6 µM; TGI [6]: 30.8 µM; GI50 [7]: 3.28 µM; TGI [7]: 12.7 µM; GI50 [8]: 15.4 µM; TGI [8]: 29.6 µM; GI50 [9]: 11.2 µM; TGI [9]: 23.3 µM; GI50 [10]: 13.3 µM; TGI [10]: 31.6 µM; GI50 [11]: 5.71 µM; TGI [11]: 36.5 µM; GI50 [12]: 16.1 µM; TGI [12]: 33.9 µM; GI50 [13]: 2.95 µM; TGI [13]: 9.35 µM; GI50 [14]: 2.01 µM; TGI [14]: 4.72 µM; GI50 [15]: 1.8 µM; TGI [15]: 3.99 µM; GI50 [16]: 2.52 µM; TGI [16]: 6.47 µM; GI50 [17]: 6.54 µM; TGI [17]: 19 µM; GI50 [18]: 12.5 µM; TGI [18]: 25.3 µM; GI50 [19]: 2.17 µM; TGI [19]: 4.9 µM; GI50 [20]: 10.4 µM; TGI [20]: 23.5 µM; GI50 [21]: 11.6 µM; TGI [21]: 30 µM; GI50 [22]: 4.22 µM; TGI [22]: 15.4 µM; GI50 [23]: 14.3 µM; TGI [23]: 34.7 µM; GI50 [24]: 4.51 µM; TGI [24]: 17.5 µM; GI50 [25]: 2.77 µM; TGI [25]: 8.75 µM; GI50 [26]: 7.41 µM; TGI [26]: 22.1 µM; GI50 [27]: 1.87 µM; TGI [27]: 3.59 µM; GI50 [28]: 27.5 µM; TGI [28]: > 100 µM; GI50 [29]: 4.53 µM; TGI [29]: 15.5 µM; GI50 [30]: 6.39 µM; TGI [30]: 32.3 µM; GI50 [31]: 3.01 µM; TGI [31]: 11.7 µM; GI50 [32]: 10.9 µM; TGI [32]: 23.1 µM; GI50 [33]: 13.2 µM; TGI [33]: > 100 µM; GI50 [34]: 2.02 µM; TGI [34]: 5.18 µM; GI50 [35]: 6.02 µM; TGI [35]: 19.3 µM; GI50 [36]: 4.1 µM; TGI [36]: 95.8 µM; GI50 [37]: 15.2 µM; TGI [37]: 33.8 µM; GI50 [38]: 12.3 µM; TGI [38]: 25.4 µM; GI50 [39]: 12.5 µM; TGI [39]: 26.6 µM; GI50 [40]: 4.46 µM; TGI [40]: 19.7 µM; GI50 [41]: 15.3 µM; TGI [41]: 29.5 µM; GI50 [42]: 2.52 µM; TGI [42]: 25.7 µM; GI50 [43]: 2.83 µM; TGI [43]: 13.5 µM; GI50 [44]: 3.15 µM; TGI [44]: 11 µM; GI50 [45]: 6.18 µM; TGI [45]: 22.9 µM; GI50 [46]: 17.6 µM; TGI [46]: 33.6 µM; GI50 [47]: 17.5 µM; TGI [47]: 35.1 µM; GI50 [48]: 2.3 µM; TGI [48]: 5.85 µM; GI50 [49]: 2 µM; TGI [49]: 5.17 µM; GI50 [50]: 1.77 µM; TGI [50]: 4.26 µM; GI50 [51]: 4.4 µM; TGI [51]: 19.9 µM; GI50 [52]: 5.37 µM; TGI [52]: 18.3 µM; GI50 [53]: 12.1 µM; TGI [53]: 42.3 µM; GI50 [54]: 2.39 µM; TGI [54]: 6.62 µM; GI50 [55]: 3.46 µM; TGI [55]: 16.3 µM; GI50 [56]: 13.8 µM; TGI [56]: 33.6 µM; GI50 [57]: 11.2 µM; TGI [57]: 23.2 µM; GI50 [58]: 11.2 µM; TGI [58]: 28.2 µM

Reference: PubChem BioAssay (NCI)
